The values that follow come from US11977086B2, “Biomarker detection from breath samples” (Hound Labs, Inc., priority 2019, dated 2024).

Data set [1] can be described thus: THC in breath after smoking, samples collected with a Hound Labs device and analyzed by mass spectrometry. It counts as in vivo, human.
The conditions of data set [2]: pH>8; cited from earlier work.
For data set [3] the following is noted: compared with THC; cited from earlier work.

`CCCCCc1cc(O)c2c(c1)OC(C)(C)[C@@H]1CCC(C)=C[C@@H]21` [THC, tetrahydrocannabinol]: the “measured amount of THC in breath sample indicative of recent usage” value in data set [1] (breath sample of 0.5 liters, usage within the three hours prior to collection) is 1-10 picograms (pg). In addition, the “baseline breath THC, maximum” value in data set [1] (chronic or frequent smokers who have not smoked for several hours) is listed as not above 12 pg/5 L breath. Also, the “maximum baseline breath THC per liter” value in data set [1] (chronic users, 12 pg/5 L converted to per liter) is not above 2.4 pg/L. Also, the “time THC is detected in breath after smoking” value in data set [1] (on average, 430 tests, smoking indoors or outdoors, mass spectrometry) lay within 2 to 3 h. The “solubility versus pH” value in data set [2] is recorded as “higher solubility”.

For `CCCCCc1cc2c(c(O)c1C(=O)O)[C@@H]1C=C(C)CC[C@H]1C(C)(C)O2` [THCA], the resistance to oxidation result in data set [3] is given as “higher resistance to oxidation”.
